# Experimental data reported in PMC7375240, “Covalent Inhibitors Allosterically Block the Activation of Rho Family Proteins and Suppress Cancer Cell Invasion” (Advanced Science, 2020).
# How the values were obtained:
# Cdc42 = target: T1, Cdc42 (Homo sapiens, UniProt P60953); test: pull-down of Cdc42 with its GEF; format: binding; details: Cdc42-GEF interaction (GEF probably human intersectin1 […]-1571), pH […]
# T1 construct: full length, His6-tagged (pET28a), E. coli BL21(DE3)
# Rac1 = target: T2, Rac1 (Homo sapiens, UniProt P63000); test: pull-down of Rac1 with its GEF; format: binding; details: Rac1-GEF interaction (GEF probably murine Tiam1 […]-1406), pH […]
# T2 construct: full length, His6-tagged (pET28a), E. coli BL21(DE3)
# T1 sequence (P60953 whole entry): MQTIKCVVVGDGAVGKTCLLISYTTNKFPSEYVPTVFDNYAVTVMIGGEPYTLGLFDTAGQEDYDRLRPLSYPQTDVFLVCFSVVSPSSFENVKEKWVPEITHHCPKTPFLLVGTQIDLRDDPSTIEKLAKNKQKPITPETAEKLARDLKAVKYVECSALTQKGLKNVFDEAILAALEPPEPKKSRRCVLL
structure (smiles),measurement,setting,value
"C=CCOC(=O)C1=CS(=O)(=O)c2ccccc21 [DC-RC-063, DC-Rhoin]",pull-down of Cdc42 with its GEF,Cdc42,"selectively inhibited the interactions between Rho family proteins (RhoA, Cdc42, and Rac1)"
same,pull-down of Rac1 with its GEF,Rac1,"selectively inhibited the interactions between Rho family proteins (RhoA, Cdc42, and Rac1)"
